Reference: US20210187127A1, “CHALLENGE TEST FOR DIAGNOSING A SUBTYPE OF AUTISM SPECTRUM DISEASE” (STALICLA SA, priority 2017, published 2021)
Where two headings read alike, the source gives them in different places.

Columns and labels:
ASD phenotype 1 patients = assay: Challenge test with broccoli sprout extract (sulforaphane), behavioral scores; assay type: in vivo, humans; conditions: selected patient cohort
Experimental: (§1) The effects of sulforaphane containing Broccoli sprout extract was observed and quantified in 7 individuals suffering from ASD and previously classified as either phenotype 1 or phenotype 2 patients.
The extract was prepared from selected broccoli seeds known to have high yield of sulforaphane which were surface-disinfected and grown (sprouted) for 3 days in a commercial sprouting facility under controlled light and moisture conditions.

ASD phenotype 2 patients = conditions: for CGI-I: after 3 days of administration; for CGI-I / GGI-S: 7-point scale; for Clinical significance / GGI-S: after challenge test; for ADI-R-RI S score / ADI-R-C S score / ADI-R-SI S score: day 3 of challenge test; for ADI-R-SI S score: baseline 16; for ADI-R-C Change (%) / ADI-R-RI Change (%) / ADI-R-SI Change (%): day 3 vs baseline
Experimental: as §1
We describe a procedure consisting of an evaluation of patients with ASD prior and after administration of broccoli sprout extract. The extract was prepared from selected broccoli seeds known to have high yield of sulforaphane which were surface-disinfected and grown (sprouted) for 3 days in a commercial sprouting facility under controlled light and moisture conditions. A boiling water extract was prepared, filtered, cooled, and treated with the enzyme myrosinase (from daikon sprouts) to convert precursor glucosinolates to isothiocyanates. Behavioral evaluation of patients was performed prior, during and after administration of sulforaphane-containing broccoli sprout extract. Baseline evaluation of patients was performed using standard clinical endpoints (ADI-R subscales ADI-SI, ADI-C and ADI-RI).
Challenge regimen consisted of the administration of a Broccoli Sprout Extract dose corresponding to a total daily dosage of 4 μmol/kg of sulforaphane, administered in 3 doses over the course of the day.
The assessment of baseline scores and post challenge test scores was conducted by two experienced clinicians with extensive experience in conducting ASD clinical assessments, both of which separately rated the patients. In case of diverging scores in test subscales at baseline or after administration of the challenge test, the lowest severity score was retained. Assessment of clinical endpoints was performed at day 3 of administration of challenge test. Behavioral Outcome Measures: (primary efficacy endpoints): ABC, SRS; CGI-S, CGI-I and ADI-R (ADI-SI, ADI-C, ADI-RI).

[1] = Singh K et al., PNAS 2014; cited from earlier work
[2] = test system: lymphoblastoid cell lines of ASD phenotype 1 patients; assay: Biolog Phenotype Mammalian MicroArrays, NADH production (redox dye); assay type: cell-based, human; conditions: cells exposed to the growth factor or cytokine; FIG. 1 (AUC) and Table 1
Experimental: From all subjects, blood samples were collected and lymphoblastoid cell lines generated. Briefly, tubes containing anticoagulant citrate dextrose (ACD) were used to collect blood samples via venipuncture, in order to ensure that the blood cells remained metabolically active. The tubes were kept at room temperature and processed within 24 hours.
Cell lines were obtained by immortalization of lymphocytes from blood samples using Epstein-Barr virus.
Energy production of cells was measured using commercially available Phenotype Mammalian MicroArrays (PM-Ms, Biolog, Hayward, Calif., USA).
The compound in each well was designed to be used by the cells, either as the sole energy source or as the metabolic effector influencing the utilization of an energy source (α-D-glucose) added in the cell suspension. […] Before plating, cell viability and number were assessed utilizing a BioRad cell counter and a trypan blue dye. The concentration of live cells required for plating was 4×10^5 cells/mL, corresponding to 20,000 cells per well in a volume of 50 μL. […] Cells were incubated for 48 h at 37° C. in 5% CO2, using the modified Biolog IF-M1 medium.
The Biolog IF-M1 medium was modified for plates PM-M1 to M4 by adding the following to 100 mL of Biolog IF-M1: 1.1 mL of 100× penicillin/streptomycin solution, 0.16 mL of 200 mM glutamine (final concentration 0.3 mM), and 5.3 mL of Fetal Bovine Serum (FBS, final concentration 5%). For plates PM-M5 to M8, 5.5 mM α-D-glucose will be added in place of FBS.
During the 48-hour incubation, the only energy source the cells had was the chemical in the well. After this first incubation, Biolog Redox Dye Mix MB was added (10 μL/well) and the plates were incubated under the same conditions for an additional 24 hours. As the cells metabolized the energy source, tetrazolium dye in the media was reduced, producing a purple color according to the amount of NADH generated.
For the last 24 hours of the experiment, the plates were incubated in the Omnilog system, which collects optical density readings every 15 minutes, generating 96 data-points for each well. The system also elaborated the kinetic curve for the metabolic reaction in each well and extrapolated parameters such as slope, highest point, endpoint, area under the curve (AUC), and lag.
At the end of the 24-hour incubation, the plates were analyzed utilizing a microplate reader with readings at 590 and 750 nm. The first value (A590) indicated the highest absorbance peak of the redox dye and the second value (A750) gave a measure of the background noise. The relative absorbance (A590-750) was calculated per well.

[3] = Example 4 Patient 1 (phenotype 2)
[4] = Example 4 Patient 2 (phenotype 2)

Compound: C[S@@+]([O-])CCCCN=C=S [sulforaphane, 1-isothiocyanato-4R-(methylsulfinyl)butane]
- reducing disease severity as measured through the ADI-R, SRS and GGI-S/CGI-I (ASD phenotype 1 patients): not effective
- CGI-I (ASD phenotype 2 patients; [3]): 2
- Clinical significance (ASD phenotype 2 patients; [3]): Very much improved
- GGI-S (ASD phenotype 2 patients; [3]): 4
- ADI-R-RI S score (ASD phenotype 2 patients; Example 4 Patient 1 (phenotype 2), baseline 3): 3
- ADI-R-C S score (ASD phenotype 2 patients; Example 4 Patient 1 (phenotype 2), baseline 12): 10
- ADI-R-SI S score (ASD phenotype 2 patients; [3]): 12
- ADI-R-C Change (%) (ASD phenotype 2 patients; [3]): −20%
- ADI-R-RI Change (%) (ASD phenotype 2 patients; [3]): 0%
- ADI-R-SI Change (%) (ASD phenotype 2 patients; [3]): −33%
- CGI-I (ASD phenotype 2 patients; [4]): 2
- Clinical significance (ASD phenotype 2 patients; [4]): Very much improved
- GGI-S (ASD phenotype 2 patients; [4]): 4
- ADI-R-RI S score (ASD phenotype 2 patients; Example 4 Patient 2 (phenotype 2), baseline 5): 4
- ADI-R-C S score (ASD phenotype 2 patients; Example 4 Patient 2 (phenotype 2), baseline 11): 9
- ADI-R-SI S score (ASD phenotype 2 patients; [4]): 14
- ADI-R-C Change (%) (ASD phenotype 2 patients; [4]): −22%
- ADI-R-RI Change (%) (ASD phenotype 2 patients; [4]): −25%
- ADI-R-SI Change (%) (ASD phenotype 2 patients; [4]): −14%
- tolerability of administration to humans [1]: well tolerated
- toxicity [1]: low toxicity

Compound: FGF-1(aFGF): growth factor that selectively targets the PI3K-Akt-mTOR pathway
- production of NADH in ASD phenotype 1 cells compared to TDs and non-phenotype 1 cells [2]: significantly reduced production of NADH

Compound: IGF-I: insulin-like growth factor 1
- production of NADH in ASD phenotype 1 cells compared to TDs and non-phenotype 1 cells [2]: no significant differences

Compound: IL-1beta: Th1 cytokine
- production of NADH in ASD phenotype 1 cells compared to TDs and non-phenotype 1 cells [2]: significantly lower levels of NADH

Compound: IL-6: Th1 cytokine
- production of NADH in ASD phenotype 1 cells compared to TDs and non-phenotype 1 cells [2]: significantly lower levels of NADH

Compound: PDGF-AB: platelet-derived growth factor AB
- production of NADH in ASD phenotype 1 cells compared to TDs and non-phenotype 1 cells [2]: no significant differences

Compound: hGH(Somatotropin): growth factor that selectively targets the PI3K-Akt-mTOR pathway
- production of NADH in ASD phenotype 1 cells compared to TDs and non-phenotype 1 cells [2]: significantly reduced production of NADH
